TGI data for 13 compounds are collected here from PubChem BioAssay (NCI).

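1) Cells in 96-well plates. 2) Compound, 48 h, 5 concentrations. 3) Linear interpolation between surrounding doses. 4) Unreached endpoint = highest concentration. TGI: total growth inhibition.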

What all share (test): inhibition of tumour cell growth, NCI panel, 48 h
The test system of test [1] is OVCAR-5 ovarian.
Test [2] has as its system UO-31 renal.
Test [3] relates to LOX IMVI melanoma.
For test [4], the system named is SK-OV-3 ovarian.
Test [5] relates to T-47D breast.
Test [6] relates to EKVX NSCLC.
Test [7] relates to MDA-MB-435.
In test [8] the test system is PC-3 prostate.
Test [9] concerns IGROV1 ovarian.
Test [10] relates to UACC-62 melanoma.
The test system of test [11] is NCI-H226 lung.
Test [12] has as its system HOP-92 NSCLC.
For test [13], the system named is MDA-N.

For `N#Cc1nc(COCCOCc2ccc(F)cc2)oc1N`, the TGI in test [1], in [2], in test [3], in test [4], in [5] and in test [6] was above 100 µM in each case. Besides, the TGI in test [7], in [8], in test [9], in [10] and in test [11] was above 100 µM throughout.
As to `CCC(=O)N/N=C(\C=C\c1cccc(O)c1)c1sc(Nc2ccc(C)cc2[N+](=O)[O-])nc1C`, the TGI in [1], in test [2], in test [3], in test [4], in [6] and in test [9] was above 100 µM each time. Also, the TGI in test [10] was above 100 µM; in test [12], 27.5 µM; in test [11], above 100 µM.
For the compound `CCOC(OC1=C(C#N)CCCC1)C(C)[Se]c1ccccc1` (stereo not drawn), the TGI in [1] is above 100 µM; in test [2], above 100 µM; in test [3] it was 30.5 µM; in [4], above 100 µM; in [6] it was above 100 µM; in [9], above 100 µM. In addition, the TGI in [10] is 63.2 µM; in [12], 67.3 µM; in [11], above 100 µM.
Regarding `COc1ccc(CCNC(=O)[C@H]2CCCC[C@@H]2CCO)cc1OC`, the TGI in test [1], in test [2], in [4], in test [5], in [6] and in test [7] was above 100 µM in each case. For the same compound, the TGI in [8], in test [9], in test [10], in [12] and in [11] was above 100 µM each time.
Turning to `Cc1ccccc1N=NC(C(=O)c1ccccc1)C(=O)c1ccccc1`, the TGI in [1] was 81.2 µM; in test [2] it was 50.2 µM; in [4] it was 88.4 µM; in test [6], 88.3 µM; in [9], above 100 µM; in test [10], 59.7 µM. Besides, the results for the TGI in test [12] and in [11] were 46.4 µM and 32.2 µM, respectively.
As to `Cc1ccc(NC(=O)C(=O)Cc2cc[n+]([O-])cc2)cc1`, the TGI in test [1], in test [2], in [3], in [4], in [6] and in test [9] was above 100 µM throughout. Besides, the TGI in [10], in [12] and in test [11] was above 100 µM throughout.
As to `Cc1cc(N(CCC#N)CCC#N)ccc1C=Nc1ccc(C(=O)NN2C(=O)/C(=C/c3ccc(N(CCC#N)CCC#N)cc3)N=C2c2cc([N+](=O)[O-])ccc2Cl)cc1`, the TGI in test [1], in test [2], in [3], in test [4], in test [6] and in [9] was above 100 µM each time. For the same compound, the TGI in [10], in test [12] and in [11] was above 100 µM throughout.
`Cc1cc(Cl)ccc1C1OC(=O)c2c1ccc1ccccc21` (stereo not drawn): the TGI in [1], in test [2], in test [3], in test [4], in test [6] and in test [9] was above 100 µM in each case. The TGI in [10], in test [12] and in test [11] was above 100 µM in each case.
Take `CC(=O)C1=CCC2c3[nH]c4ccccc4c3CCN2C1` (stereo not drawn): the TGI is above 100 µM in test [1]; above 100 µM in test [2]; above 100 µM in test [3]; 75.6 µM in test [4]; above 100 µM in [6]; above 100 µM in test [9]. Besides, the TGI in test [12] and in test [11] was above 100 µM in each case.
As to `CCC(=O)C(C(C)/C=C/CCSc1ccccc1)C(O)CCCCCC(=O)OC` (stereo not drawn), the TGI in test [1], in test [2], in [3], in test [13], in [4] and in [6] was above 100 µM throughout. In addition, the TGI in test [7], in test [8], in test [9], in test [10], in [12] and in test [11] was above 100 µM throughout.
Take `COc1ccc(N=[N+]([O-])c2ccc(OC)cc2)cc1`: the TGI in test [1], in test [2], in test [13], in [4], in test [6] and in test [7] was above 100 µM each time. Also, the TGI in test [8], in test [9], in test [10] and in test [12] was above 100 µM each time.
Regarding `CC[C@@H]1/C=C/C=C/C[C@H](C)[C@@H](O)[C@](C)(O)C(=O)[C@H](C)[C@@H](O)[C@H](C)C(=O)[C@H](C)[C@@H](O)[C@H](C)/C=C/C(=O)O[C@H]2[C@@H](C)[C@@H](CC1)O[C@@]1(CC[C@@H](C)[C@@H](CC(C)O)O1)[C@@H]2C` (stereo partly drawn), the TGI in test [1] came to 7.38 µM; in [2], 12.3 µM; in test [3], 4.32 µM; in test [13], 6.72 µM; in [4], 14.5 µM; in [6], 10.8 µM. The TGI was found to be 6.89 µM in test [7]; 5.05 µM in test [8]; 5.96 µM in [9]; 6.57 µM in test [10]; 6.11 µM in [12].
Regarding `COc1ccc2c(c1)CCC(OS(=O)(=O)CC13CCC(CC1=O)C3(C)C)C2=O` (stereo not drawn), the TGI in test [1] is above 100 µM; in [2], above 100 µM; in [3] it was 32.1 µM; in test [6], above 100 µM; in [10], 34.8 µM; in test [12], 93.2 µM. The TGI in [11] was determined as 65.2 µM.
